Counter-ions that a name gives are not always drawn.
How the values were obtained:
BMDMs = assay: ELISA of cytokine release from BMDMs; format: cell-based, mouse; settings: for IL-6 release / IL-10 release / TNF-α release: BMDMs pre-treated 3 h
Description: All compounds used DMSO as a vehicle except for 4-hydroxy tamoxifen (EtOH), NAC (PBS), and AOAA for tracing experiments (Media). LPS was used at a concentration of 100 ng/ml for indicated timepoints (2, 3, 4, 6, 8, 24, 48 h). FHIN1 (10 or 20 μM), MMF (50 or 100 μM), DMF (25 μM), AOAA (5 mM), oligomycin (10 μM), CCCP (50 μM) NAC (1 mM), and IMT1 (10 μM) pre-treatments were performed for 3 h prior the addition of LPS. Cells were treated with valinomycin (10 nM) 15 mins before LPS stimulation. Anti-CD210 or IgG control (10 μg/ml) antibodies were added to cells 1 h prior to LPS stimulation. Recombinant mouse IL-10 protein (100 ng/ml) was added to cells at the same time as LPS. Cells were treated with IFN-B1 (220 ng/ml) for 3 h. Cells were treated with C-178 (1 μM) 1 h prior to LPS stimulation or transfection with 2′3′-cGAMP (1.5 μg/ml) for 4 hrs to achieve cGAS-STING activation. Cells were treated with ODN 2088 (1 μM) for 1 hr prior to LPS stimulation or transfection with CPG ODN 1826 (1.5 μg/ml) to achieve TLR9 activation. 3 different timepoints of 4-hydroxy tamoxifen (TAM) (600 nM or 2 μM) or EtOH treatment were performed-these are specified in the individual figure legends. For ‘48 h’ treatments EtOH/TAM was added on day 5 of 6 during the BMDM differentiation protocol. On day 6 they were plated with EtOH/TAM (left overnight) and treated the following day. For ‘72 h’ treatments EtOH/TAM was added on day […] of 6 during the BMDM differentiation protocol. On day 6 they were plated with EtOH/TAM (left overnight) and treated the following day. For ‘96 h’ treatments EtOH/TAM was added on day […] of 6 during the BMDM differentiation protocol. On day 6 they were plated with EtOH/TAM and treated 2 days later.
Pre-designed silencer select siRNAs for Cgas (s103166), Tmem173 (s91058), Tlr3 (s100579), Tlr9 (s96268), As/(s99640), Tlr7 (s100720), Ddx58 (s106376), Ifih1 (s89787), Nrf2 (s70522), Atf4 (s62689) and negative control (4390843) were ordered from Thermo Fisher. siRNA sequences are given in Table S2. Cells were transfected with 50 nM siRNA using 5 μl lipofectamine RNAiMAX according to manufacturer's instructions (Thermo Fisher). Cells were transfected in medium without serum and antibiotics which was replaced with complete medium 8 hours later. Cells were subsequently left for at least a further 12 hours prior to treatment.
BMDMs were plated in the presence or absence of ultrapure ethidium bromide (100 ng/ml) and incubated for a further 6 days prior to treatment. Depletion of mtDNA was determined by genomic DNA isolation followed by qPCR using primers specific for areas of mitochondrial DNA (D-loop) and areas of mtDNA that are not inserted into nuclear DNA (Non-NUMT).
DuoSet ELISA kits for IL-1β, TNFα, IL-6, IL-10, and GDF15 were purchased from R&D Systems and were carried out according to the manufacturer's instructions with appropriately diluted cell supernatants added to each plate in duplicate or triplicate. IFN-β was determined using DuoSet ELISA kit from R&D Systems or Abcam (ab252363). Quantikine ELISA kit for IFN-β (R&D Systems) was used for determination of IFN-β concentration in serum samples and from human cells, and these were also carried out according to the manufacturer's instructions. Absorbance at 450 nm was quantified using a FLUOstar Optima plate reader. Corrected absorbance values were calculated by subtracting the background absorbance, and cytokine concentrations were subsequently obtained by extrapolation from a standard curve plotted on GraphPad Prism 9.2.0.

mice = assay: LPS-induced inflammation model, serum IFN-β; format: in vivo, mouse; settings: 50 mg/kg intraperitoneally 1 hour before LPS 2.5 mg/kg, blood 2 hours later
Description: 6-week-old male mice were used, and littermates were randomly assigned to experimental groups. Compounds were resuspended in 10% DMSO followed by 90% cyclodextrin/PBS (20% w/v). Mice were injected intraperitoneally with vehicle, FHIN1 or DMF (both 50 mg/kg) at a volume of 200 μl per injection. 1 hour later, mice were injected intraperitoneally with PBS or LPS from E. coli (2.5 mg/kg, Sigma) at a volume of 100 μl per injection. 2 hours later, mice were euthanised and blood was harvested retro-orbitally. Blood was allowed to clot for 30 mins at room temperature before it was centrifuged at 5000×g for 10 mins at 4° C. The serum was removed and IFN-β concentration was determined by ELISA. DuoSet ELISA kits for IL-1β, TNFα, IL-6, IL-10, and GDF15 were purchased from R&D Systems and were carried out according to the manufacturer's instructions with appropriately diluted cell supernatants added to each plate in duplicate or triplicate. IFN-β was determined using DuoSet ELISA kit from R&D Systems or Abcam (ab252363). […] Absorbance at 450 nm was quantified using a FLUOstar Optima plate reader. Corrected absorbance values were calculated by subtracting the background absorbance, and cytokine concentrations were subsequently obtained by extrapolation from a standard curve plotted on GraphPad Prism 9.2.0.

human PBMCs = assay: ELISA of IFN-β release from human PBMCs; format: cell-based; settings: human PBMCs pre-treated, LPS 4 h
Description: Human blood samples from healthy donors were collected and processed at the School of Biochemistry and Immunology in TBSI (TCD). Blood samples were obtained anonymously and written informed consent for the use of blood for research purposes has been obtained from the donors. All the procedures involving experiments on human samples have been approved by the School of Biochemistry and Immunology Research Ethics Committee (TCD). Experiments were conducted according to the TCD guide on good research practice, which follows the guidelines detailed in the National Institutes of Health Belmont Report (1978) and the Declaration of Helsinki. […] The remaining pellet of mononuclear cells was resuspended, counted, and plated at 1×10^6 cells/ml in RPMI supplemented with FCS (10%) and penicillin/streptomycin (1%). […]
DuoSet ELISA kits for IL-1β, TNFα, IL-6, IL-10, and GDF15 were purchased from R&D Systems and were carried out according to the manufacturer's instructions with appropriately diluted cell supernatants added to each plate in duplicate or triplicate. IFN-β was determined using DuoSet ELISA kit from R&D Systems or Abcam (ab252363). […] Absorbance at 450 nm was quantified using a FLUOstar Optima plate reader. […]

## COC(=O)/C=C/C(=O)OC [DMF, dimethyl fumarate]
BMDMs; LPS 4 h
  IL-6 release: reduced
  IL-10 release: decreased
  TNF-α release: increased
mice
  LPS-induced IFN-β release into the serum: no effect
Human PBMCs
  LPS-induced IFN-β release: suppressed

## CCOC(=O)[C@@]12CCCC=C1N(Cc1ccc(-c3ccccc3)cc1)C(=O)[C@H]2CC(=O)NC [FHIN1, Fumarate hydratase-IN-1]
BMDMs; LPS 4 h
  IL-6 release: reduced
  IL-10 release: decreased
  TNF-α release: increased
BMDMs; BMDMs pre-treated, LPS 4 h
  GDF15 release: drove GDF15 release
  LPS-induced IFN-β release: increase
BMDMs; BMDMs pre-treated, co-treated with recombinant IL-10 100 ng/ml, LPS 4 h
  TNF-α production: failed to impair STAT3 phosphorylation or augment TNF-α production
BMDMs; BMDMs treated with EtBr 100 ng/ml 6 days (mtDNA depletion), then FHIN1, LPS 4 h
  LPS-induced IFN-β release in the presence of EtBr: no longer boosted
BMDMs; BMDMs, siRNA 50 nM, LPS 4 h
  augmentation in IFN-β release with knockdown of Tlr3: did not affect
  boost in IFN-β release with silencing of Tlr7, Ddx58 (RIG-I) or Ifih1 (MDA5): abrogated
mice
  LPS-induced IFN-β release into the serum: increased
Human PBMCs
  LPS-induced IFN-β release: boosted

Reference: patent US20250018019A1, “TREATMENT OF INTERFERON DRIVEN INFLAMMATION” (The Provost, Fellows, Foundation Scholars and the other …, priority 2023, published 2025)
